≈ marks a conversion by molar mass, not a printed value.
How the values were obtained:
[1] = test system: Aspergillus fumigatus ATCC 1028; assay: Antifungal activity test (in vitro), MIC; format: cell-based; details: ATCC1028
Experimental: Minimum inhibitory concentration (MIC) of each of the compounds obtained in Examples 1 to 12 was measured for respective fungi at MOS Pharm Service, by the methods described in Antimicrobial Agents and Chemotherapy, vol. 3, pp. 40-48 (1973), Antimicrobial Agents and Chemotherapy, vol. 33, pp. 215-222 (1989) and Antimicrobial Agents and Chemotherapy, vol. 38, pp. 2362-2368 (1994). The measuring conditions are shown in the following. In this case, Voriconazol was used as a comparative compound.
Aspergillus fumigatus ATCC 1028; Cultured at 28° C. for 2 days using potato dextrose broth, and this was used as a cell suspension.
Each of the compounds of the invention was adjusted to a concentration of 1% by weight using dimethyl sulfoxide (DMSO) and a medium similar to the respective medium used in the above-mentioned fungal culture, having a final concentration of from 0.001 to 100 μg/ml, was prepared. Each of the inoculation cell suspensions prepared by the above-mentioned methods was inoculated onto this agar plate. […] In this connection, Voriconazol was used as the comparative compound C-1.

[2] = test system: Cryptococcus neoformans ATCC 24067; assay: Antifungal activity test (in vitro), MIC; format: cell-based; details: ATCC24067
Experimental: (§1) Minimum inhibitory concentration (MIC) of each of the compounds obtained in Examples 1 to 12 was measured for respective fungi at MOS Pharm Service, by the methods described in Antimicrobial Agents and Chemotherapy, vol. 3, pp. 40-48 (1973), Antimicrobial Agents and Chemotherapy, vol. 33, pp. 215-222 (1989) and Antimicrobial Agents and Chemotherapy, vol. 38, pp. 2362-2368 (1994). The measuring conditions are shown in the following. In this case, Voriconazol was used as a comparative compound. Cryptococcus neoformans ATCC 24067, Pityrosporum ovale ATCC 38593; Cultured at 37° C. for 2 day using fluid Sabouraud medium, and this was used as a cell suspension. Each of the compounds of the invention was adjusted to a concentration of 1% by weight using dimethyl sulfoxide (DMSO) and a medium similar to the respective medium used in the above-mentioned fungal culture, having a final concentration of from 0.001 to 100 μg/ml, was prepared. Each of the inoculation cell suspensions prepared by the above-mentioned methods was inoculated onto this agar plate. […] In this connection, Voriconazol was used as the comparative compound C-1.

[3] = test system: Pityrosporum ovale ATCC 38593; assay: Antifungal activity test (in vitro), MIC; format: cell-based; details: Malassezia furfur, ATCC38593
Experimental: as §1

[4] = test system: Microsporum canis ATCC 36299; assay: Antifungal activity test (in vitro), MIC; format: cell-based; details: ATCC36299
Experimental: as §1, with “Microsporum canis” for “Cryptococcus neoformans”, “36299;” for “24067, Pityrosporum ovale ATCC 38593;”, “30°” for “37°”, “days” for “day”

[5] = test system: Trichophyton mentagrophytes ATCC 9533; assay: Antifungal activity test (in vitro), MIC; format: cell-based; details: ATCC9533
Experimental: as §1, with “Trichophyton mentagrophytes” for “Cryptococcus neoformans”, “9533;” for “24067, Pityrosporum ovale ATCC 38593;”, “28°” for “37°”, “3 days” for “2 day”

[6] = test system: Candida albicans ATCC 10231; assay: Antifungal activity test (in vitro), MIC; format: cell-based; details: ATCC10231
Experimental: as §1, with “Candida albicans” for “Cryptococcus neoformans”, “10231 and” for “24067, Pityrosporum ovale”, “44858;” for “38593;”, “20 hours” for “2 day”

[7] = test system: Candida albicans ATCC 44858; assay: Antifungal activity test (in vitro), MIC; format: cell-based; details: ATCC44858
Experimental: as §1, with “Candida albicans” for “Cryptococcus neoformans”, “10231 and” for “24067, Pityrosporum ovale”, “44858;” for “38593;”, “20 hours” for “2 day”

[8] = test system: Trichophyton rubrum ATCC 10218; assay: Antifungal activity test (in vitro), MIC; format: cell-based; details: ATCC10218
Experimental: as §1, with “Trichophyton rubrum” for “Cryptococcus neoformans”, “10218;” for “24067, Pityrosporum ovale ATCC 38593;”, “28°” for “37°”, “3 days” for “2 day”

[9] = test system: Aspergillus niger ATCC 8740; assay: Antifungal activity test (in vitro), MIC; format: cell-based; details: ATCC8740
Experimental: as §1, with “Aspergillus niger” for “Cryptococcus neoformans”, “8740;” for “24067, Pityrosporum ovale ATCC 38593;”, “28°” for “37°”, “days” for “day”, “potato dextrose broth,” for “fluid Sabouraud medium,”

Row | MIC [1] | MIC [2] | MIC [3] | MIC [4] | MIC [5] | MIC [6] | melting point | MIC [7] | MIC [8] | MIC [9] | SMILES
1 | 30 µg/mL (≈ 70.9 µM) | 0.3 µg/mL (≈ 0.709 µM) | 0.3 µg/mL (≈ 0.709 µM) | 10 µg/mL (≈ 23.6 µM) | 10 µg/mL (≈ 23.6 µM) | 0.3 µg/mL (≈ 0.709 µM) | 178 to 180 °C | – | – | – | C[C@@H](Oc1cc(-c2ccccn2)ccn1)[C@](O)(Cn1cncn1)c1ccc(F)cc1F [I-9, (2R,3R)-3-(2,4′-bipyridin-2′-yloxy)-2-(2,4-difluorophenyl)-1-(1,2,4-triazol-1-yl)butan-2-ol]
2 | 100 µg/mL (≈ 243 µM) | 1 µg/mL (≈ 2.43 µM) | 0.3 µg/mL (≈ 0.729 µM) | 100 µg/mL (≈ 243 µM) | 3 µg/mL (≈ 7.29 µM) | 3 µg/mL (≈ 7.29 µM) | 89 to 92 °C | – | – | – | C[C@@H](N1CCC=C(c2ccccn2)C1)[C@](O)(Cn1cncn1)c1ccc(F)cc1F [I-10, (2R,3R)-2-(2,4-difluorophenyl)-3-(5′,6′-dihydro-2,3′-bipyridin-1′(2′H)-yl)-1-(1,2,4-triazol-1-yl)butan-2-ol]
3 | 100 µg/mL (≈ 242 µM) | 10 µg/mL (≈ 24.2 µM) | 10 µg/mL (≈ 24.2 µM) | 100 µg/mL (≈ 242 µM) | 100 µg/mL (≈ 242 µM) | 0.1 µg/mL (≈ 0.242 µM) | 75 to 78 °C | – | – | – | C[C@@H](N1CCCC(c2ccccn2)C1)[C@](O)(Cn1cncn1)c1ccc(F)cc1F (stereo partly drawn) [I-12, (2R,3R)-2-(2,4-difluorophenyl)-3-(3-pyridin-2-ylpiperidin-1-yl)-1-(1,2,4-triazol-1-yl)butan-2-ol]

Further lines, the compound ahead of its results:

Row | SMILES | MIC [1] | MIC [2] | MIC [3] | MIC [4] | MIC [5] | MIC [6] | melting point | MIC [7] | MIC [8] | MIC [9]
4 | C[C@@H](N1CC=C(c2ccc(F)cn2)CC1)[C@](O)(Cn1cncn1)c1ccc(F)cc1F [I-7, (2R,3R)-2-(2,4-difluorophenyl)-3-(5-fluoro-3′,6′-dihydro-2,4′-bipyridin-1′(2′H)-yl)-1-(1,2,4-triazol-1-yl)butan-2-ol] | 10 µg/mL (≈ 23.3 µM) | 0.3 µg/mL (≈ 0.699 µM) | 0.01 µg/mL (≈ 0.0233 µM) | 10 µg/mL (≈ 23.3 µM) | 1 µg/mL (≈ 2.33 µM) | 0.1 µg/mL (≈ 0.233 µM) | 148 to 150 °C | – | – | –
5 | C[C@@H](N1CCC(c2ccc(F)cn2)CC1)[C@](O)(Cn1cncn1)c1ccc(F)cc1F [I-2, (2R,3R)-2-(2,4-difluorophenyl)-3-[4-(5-fluoropyridin-2-yl)piperidin-1-yl]-1-(1,2,4-triazol-1-yl)butan-2-ol] | 10 µg/mL (≈ 23.2 µM) | 0.3 µg/mL (≈ 0.695 µM) | 0.01 µg/mL (≈ 0.0232 µM) | 10 µg/mL (≈ 23.2 µM) | 1 µg/mL (≈ 2.32 µM) | 0.1 µg/mL (≈ 0.232 µM) | 100 to 102 °C | – | – | –
6 | C[C@@H](c1ncncc1F)[C@](O)(Cn1cncn1)c1ccc(F)cc1F [C-1, Voriconazol, reference compound] | 0.3 µg/mL (≈ 0.859 µM) | 0.1 µg/mL (≈ 0.286 µM) | 0.3 µg/mL (≈ 0.859 µM) | 3 µg/mL (≈ 8.59 µM) | 0.1 µg/mL (≈ 0.286 µM) | 0.3 µg/mL (≈ 0.859 µM) | – | 0.3 µg/mL (≈ 0.859 µM) | 0.3 µg/mL (≈ 0.859 µM) | 0.1 µg/mL (≈ 0.286 µM)
7 | Cc1ccc(C2=CCN([C@H](C)[C@](O)(Cn3cncn3)c3ccc(F)cc3F)CC2)nc1C [I-4, (2R,3R)-2-(2,4-difluorophenyl)-3-(5,6-dimethyl-3′,6′-dihydro-2,4′-bipyridin-1′(2′H)-yl)-1-(1,2,4-triazol-1-yl)butan-2-ol] | 10 µg/mL (≈ 22.8 µM) | 0.1 µg/mL (≈ 0.228 µM) | 10 µg/mL (≈ 22.8 µM) | 1 µg/mL (≈ 2.28 µM) | 0.3 µg/mL (≈ 0.683 µM) | 0.3 µg/mL (≈ 0.683 µM) | 85.5 to 87.5 °C | – | – | –
8 | Cc1ccc(C2=CCN([C@H](C)[C@](O)(Cn3cncn3)c3ccc(F)cc3F)CC2)nc1 [I-5, (2R,3R)-2-(2,4-difluorophenyl)-3-(5-methyl-3′,6′-dihydro-2,4′-bipyridin-1′(2′H)-yl)-1-(1,2,4-triazol-1-yl)butan-2-ol] | 3 µg/mL (≈ 7.05 µM) | 0.03 µg/mL (≈ 0.0705 µM) | 0.003 µg/mL (≈ 0.00705 µM) | 1 µg/mL (≈ 2.35 µM) | 0.1 µg/mL (≈ 0.235 µM) | 0.1 µg/mL (≈ 0.235 µM) | 115 to 117 °C | – | – | –

Source: patent US7973056B2, “Triazole derivative or salt thereof” (Fujifilm Finechemicals Co., Ltd, priority 2008, dated 2011)
